Source: patent US8383125B2, “Antimicrobial protein” (Agriculture Victoria Services Pty, Limited, priority 2006, dated 2013)
Where two headings read alike, the source gives them in different places. Where no end group is shown, it is not given here.

Columns and labels:
[1] = tested on: Pseudomonas aeruginosa (ATCC 27853); parameters: key: resistant (R); susceptible (S); conditions: Reference isolate; cited from earlier work
[2] = tested on: P. aeruginosa strain FADDI 001; parameters: key: resistant (R); susceptible (S); conditions: Clinical specimen; cited from earlier work
[3] = tested on: P. aeruginosa strain FADDI 002; parameters: key: resistant (R); susceptible (S); conditions: Clinical specimen; cited from earlier work
[4] = tested on: P. aeruginosa strain FADDI 003; parameters: key: resistant (R); susceptible (S); conditions: Clinical specimen; cited from earlier work
[5] = tested on: P. aeruginosa strain FADDI 004; parameters: key: resistant (R); susceptible (S); conditions: Clinical specimen; cited from earlier work
[6] = tested on: Acinetobacter baumannii (ATCC 19606); parameters: key: resistant (R); susceptible (S); conditions: Reference isolate; cited from earlier work
[7] = tested on: A. baumannii strain FADDI 005 (ATCC 19606 derivative); parameters: key: resistant (R); susceptible (S); conditions: Laboratory prepared; obtained from Mueller-Hinton agar containing 10 mg/L colistin; cited from earlier work
[8] = tested on: A. baumannii strain FADDI 006; parameters: key: resistant (R); susceptible (S); conditions: Clinical specimen; cited from earlier work
[9] = tested on: A. baumannii strain FADDI 007; parameters: key: resistant (R); susceptible (S); conditions: Clinical specimen; cited from earlier work
[10] = tested on: Klebsiella pneumoniae (ATCC 13883); parameters: key: resistant (R); susceptible (S); conditions: Reference isolate; cited from earlier work
[11] = tested on: K. pneumoniae strain FADDI 008; parameters: key: resistant (R); susceptible (S); conditions: Clinical specimen; cited from earlier work
[12] = tested on: K. pneumoniae strain FADDI 009; parameters: key: resistant (R); susceptible (S); conditions: Clinical specimen; cited from earlier work
[13] = tested on: K. pneumoniae strain FADDI 010; parameters: key: resistant (R); susceptible (S); conditions: Clinical specimen; cited from earlier work
[14] = tested on: Bacillus subtilis; assay type: cell-based; conditions: Table 1
[15] = tested on: Streptococcus equi equi (ATCC 9527); assay type: cell-based; conditions: Table 1
[16] = tested on: Candida albicans (ATCC 753); assay type: cell-based; conditions: Table 1
[17] = tested on: P. aeruginosa strain FADDI 001; assay type: cell-based, Pseudomonas aeruginosa; conditions: strain FADDI 001, 17 h
Experimental: (§1) The MIC values of SEQ ID NO: 2 and SEQ ID NO: 19 were also determined against a range of multidrug-resistant isolates, including clinical and laboratory strains. Peptides, maintained at −20° C. in solid form for storage purposes, were subsequently dissolved in 0.01% (v/v) acetic acid (Sigma-Aldrich) to a stock concentration of […]. The stock solutions were made fresh for each experiment. Eighteen (18) bacterial isolates obtained from the Facility for Anti-Infective Drug Development and Innovation, Victoria, Australia (FADDI) as listed in Table 2 were maintained as stock cultures in Tryptic Soya Broth plus 20% (v/v) glycerol at a temperature of −80° C., and subcultured onto Nutrient Agar for each experiment. MIC values were determined in cation-adjusted Mueller-Hinton broth (CAMHB) and Mueller-Hinton broth (MHB) using standard broth micro-dilution methods.

[18] = tested on: P. aeruginosa strain FADDI 002; assay type: cell-based, Pseudomonas aeruginosa; conditions: strain FADDI 002, 17 h
Experimental: as §1

[19] = tested on: P. aeruginosa strain FADDI 003; assay type: cell-based, Pseudomonas aeruginosa; conditions: strain FADDI 003, 17 h
Experimental: as §1

[20] = tested on: P. aeruginosa strain FADDI 004; assay type: cell-based, Pseudomonas aeruginosa; conditions: strain FADDI 004, 17 h
Experimental: as §1

[21] = tested on: A. baumannii strain FADDI 005 (ATCC 19606 derivative); assay type: cell-based, Acinetobacter baumannii; conditions: 17 hr at 35° C.
Experimental: as §1
Pseudomonas aeruginosa (ATCC 27853) and S. aureus (ATCC 43300) were included as quality controls in experiments. P. aeruginosa strains FADDI 001 and FADDI 002 are mucoid; and P. aeruginosa strains FADDI 003 and FADDI 004 are non-mucoid. P. aeruginosa strain FADDI 003 also has a small colony morphology. The A. baumannii strain FADDI 005 is a colistin-resistant isolate obtained from Mueller-Hinton agar containing 10 mg/L colistin.

[22] = tested on: A. baumannii strain FADDI 006; assay type: cell-based, Acinetobacter baumannii; conditions: strain FADDI 006, 17 h
Experimental: as §1

[23] = tested on: A. baumannii strain FADDI 007; assay type: cell-based, Acinetobacter baumannii; conditions: strain FADDI 007, 17 h
Experimental: as §1

[24] = tested on: K. pneumoniae strain FADDI 008; assay type: cell-based, Klebsiella pneumoniae; conditions: strain FADDI 008, 17 h
Experimental: as §1

[25] = tested on: K. pneumoniae strain FADDI 009; assay type: cell-based, Klebsiella pneumoniae; conditions: strain FADDI 009, 17 h
Experimental: as §1

[26] = tested on: K. pneumoniae strain FADDI 010; assay type: cell-based, Klebsiella pneumoniae; conditions: strain FADDI 010, 17 h
Experimental: as §1

[27] = tested on: Enterococcus faecium (ATCC 700221); assay type: cell-based; conditions: ATCC 700221, 17 h
Experimental: as §1

[28] = tested on: Staphylococcus aureus (ATCC 700698); assay type: cell-based; conditions: ATCC 700698, 17 h
Experimental: as §1

[29] = tested on: S. aureus (ATCC 43300); assay type: cell-based, Staphylococcus aureus; conditions: ATCC 43300, 17 h
Experimental: as §1

[30] = tested on: S. aureus 700699; assay type: cell-based, Staphylococcus aureus; conditions: 700699, 17 h
Experimental: as §1

[31] = tested on: S. aureus strain FADDI 011; assay type: cell-based, Staphylococcus aureus; conditions: strain FADDI 011, 17 h
Experimental: as §1

[32] = tested on: tammar wallaby erythrocytes; assay type: cell-based
Experimental: The toxicity of the antimicrobial peptides was determined using a haemolytic assay. In particular, the hemolytic activity of the peptides was determined using tammar wallaby erythrocytes. Fresh erythrocytes were harvested from heparinized blood taken from a tammar wallaby. Erythrocytes were harvested by centrifugation for 3 min at 3000 g. Erythrocytes were then washed three times with PBS (pH 7.4) until the supernatant was essentially colourless. 20 μl two fold serial dilutions of the peptide were mixed with the same volume of erythrocytes in solution 2%) in PBS of each well of a 96-plate. 80 μl PBS was added to each well after the plate was incubated at 37° C. for one hour. Plates were then centrifuged at 3000 g for 5 min. 90 μl of the resulting supernatant was transferred to a flat-bottom microtiter plate and haemoglobin release was monitored by measuring the absorbance at 414 nm with an ELISA plate reader. […] Each sample was performed in triplicate. Percentage hemolysis was calculated by the following formula: [(OD414 peptide−OD414 buffer)/OD414 complete hemolysis−OD414 buffer)]×100%.

[33] = tested on: E. coli DH5α; conditions: 5 μl of 250 μg/ml solutions of each peptide; E. coli

For colistin, the “Colistin resistant (R) or susceptible (S)” value (“Colistin resistant” for short) [1] is listed as “S”, the “Colistin resistant” value [2] is listed as “S” and the “Colistin resistant” value [3] is listed as “S”. The “Colistin resistant” value [4] was “R”, the “Colistin resistant” value [5] was “R” and the “Colistin resistant” value [6] was “S”. The “Colistin resistant” value [7] was “R”, the “Colistin resistant” value [8] was “R” and the “Colistin resistant” value [9] was “S”. For the same substance, the “Colistin resistant” value [10] was “S”, the “Colistin resistant” value [11] was “S” and the “Colistin resistant” value [12] was “R”. The “Colistin resistant” value [13] was “R”.

In the case of “KRGLWESLKRKATKLGDDIRNTLRNFKIKFPVPRQ-NH2 [SEQ ID NO: 19]”, the “antimicrobial activity in words” value [14] is reported as “moderately protective”, the “antimicrobial activity in words” value [15] is reported as “moderately protective” and the “antimicrobial activity in words” value [16] is reported as “Weaker antimicrobial activity”. The MIC [17] was >64 µg/mL, the MIC [18] was >64 µg/mL and the MIC [19] was >64 µg/mL. The MIC [20] was >64 µg/mL, the MIC ([21]; CAMHB (10.0 mg/L Mg2+ and 24 mg/L Ca2+)) was 8 µg/mL and the MIC ([21]; MHB (less than 5 mg/L Mg2+ and 24 mg/L Ca2+)) was 16 µg/mL. The MIC [22] was >64 µg/mL, the MIC [23] was 16 µg/mL and the MIC [24] was >64 µg/mL. For the same substance, the MIC [25] was >64 µg/mL, the MIC [26] was >64 µg/mL and the MIC [27] was 16 µg/mL. For the same substance, the MIC [28] was >64 µg/mL, the MIC [29] was >64 µg/mL and the MIC [30] was >64 µg/mL. The MIC [31] was >64 µg/mL, the “haemolysis at the MIC determined in Example 1” value [32] was “less than 5%” and the “haemolysis at the majority of concentrations tested (FIGS. 2a and 2b)” value [32] was “did not cause substantial levels of haemolysis”. For the same substance, the “radial clear zone compared to LL-37 (FIG. 3)” value [33] was “larger radial clear zone”.
